# From PubChem BioAssay (NCI)
#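 Cells were grown in 96-well plates and exposed to each compound for 48 hours at five concentrations; endpoints were interpolated linearly between bracketing concentrations, or set to the highest concentration if not reached. GI50 marks 50% less growth. The concentration for full growth arrest is given as TGI.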
# How the values were obtained:
# Test in all cases: NCI anticancer screen, dose series, 48 h
# T-47D breast = test system: T-47D breast
# MALME-3M melanoma = test system: MALME-3M melanoma
# MCF7 breast = test system: MCF7 breast
# OVCAR-3 ovarian = test system: OVCAR-3 ovarian
# U251 CNS = test system: U251 CNS
# HOP-92 NSCLC = test system: HOP-92 NSCLC
# NCI-H522 lung = test system: NCI-H522 lung
# SN12C renal = test system: SN12C renal
# A549 NSCLC = test system: A549 NSCLC
# UO-31 renal = test system: UO-31 renal
Structure (SMILES),TGI (T-47D breast),TGI (MALME-3M melanoma),TGI (MCF7 breast),TGI (OVCAR-3 ovarian),TGI (U251 CNS),TGI (HOP-92 NSCLC),TGI (NCI-H522 lung),TGI (SN12C renal),TGI (A549 NSCLC),TGI (UO-31 renal),GI50 (T-47D breast),GI50 (MALME-3M melanoma),GI50 (MCF7 breast),GI50 (OVCAR-3 ovarian),GI50 (U251 CNS),GI50 (HOP-92 NSCLC),GI50 (NCI-H522 lung),GI50 (SN12C renal),GI50 (A549 NSCLC),GI50 (UO-31 renal)
c1cncc(CNCc2cccnc2)c1,> 100 µM,> 100 µM,> 100 µM,> 100 µM,> 100 µM,> 100 µM,> 100 µM,> 100 µM,> 100 µM,> 100 µM,,,,,,,,,,
C1CC2CN(CCCN3CCOCC3)C(C1)O2 (stereo unspecified),> 100 µM,> 100 µM,> 100 µM,> 100 µM,> 100 µM,> 100 µM,> 100 µM,> 100 µM,> 100 µM,> 100 µM,,,,,,,,,,
O=c1cc(N/N=C/c2ccc(F)cc2)c2cc(Cl)ccc2[nH]1,> 100 µM,54 µM,> 100 µM,> 100 µM,98.4 µM,45.9 µM,74.3 µM,> 100 µM,> 100 µM,> 100 µM,18.6 µM,14.2 µM,15.3 µM,24.8 µM,21.1 µM,14 µM,17.4 µM,23.8 µM,23.5 µM,21.9 µM
COC(=O)COc1ccc(/C=C2/N=C(c3ccccc3)N(c3c(C)n(C)n(-c4ccccc4)c3=O)C2=O)cc1,61.2 µM,40.6 µM,32.9 µM,30.7 µM,> 100 µM,55.1 µM,41 µM,49 µM,> 100 µM,32.3 µM,21.3 µM,19.7 µM,14.1 µM,16.6 µM,67.6 µM,25.1 µM,17.8 µM,22.5 µM,> 100 µM,17 µM
COc1cc2c(cc1O)CC1c3c(cc(O)c(OC)c3-2)CCN1C (stereo unspecified),> 100 µM,> 100 µM,> 100 µM,> 100 µM,> 100 µM,> 100 µM,> 100 µM,> 100 µM,> 100 µM,> 100 µM,,,,,,,,,,
O=C(c1ccccc1)c1c(NCC(O)CN2CCOCC2)n(Cc2ccccc2)c(=O)n(Cc2ccccc2)c1=O (stereo unspecified),> 43.3 µM,> 100 µM,> 100 µM,> 77.3 µM,> 100 µM,70.8 µM,> 100 µM,> 100 µM,> 100 µM,> 100 µM,1.69 µM,48.8 µM,48.2 µM,27.6 µM,29.2 µM,17.9 µM,38.9 µM,46 µM,35.7 µM,34.5 µM
CC(C)(C)OC(=O)NCCCn1c2c(c3ccccc3c1=O)C(=O)c1ccccc1-2,> 100 µM,> 100 µM,39.4 µM,26.3 µM,28.3 µM,43.5 µM,> 100 µM,> 100 µM,> 100 µM,> 100 µM,29.6 µM,32.9 µM,15 µM,8.73 µM,11.5 µM,12.5 µM,42.4 µM,24.8 µM,41.9 µM,71.5 µM
C1CC[N-]CC1.CC(=N\O)/C(C)=N/O.CC(=N\O)/C(C)=N/O.OC1[CH-]CCCC1.[Co+2],69.5 µM,40.8 µM,> 100 µM,> 100 µM,> 100 µM,93.1 µM,31 µM,> 100 µM,> 100 µM,> 100 µM,16.5 µM,18 µM,38.7 µM,52 µM,31 µM,22.2 µM,15.7 µM,53.7 µM,58.5 µM,> 100 µM
C=CC(=O)Nc1cc(N2CCN(CC)CC2)ccc1Nc1cc(N(C)C(=O)Nc2c(Cl)c(OC)cc(OC)c2Cl)ncn1,26.4 µM,19.3 µM,19.2 µM,15.4 µM,,21.7 µM,20.3 µM,9.72 µM,37.6 µM,22.2 µM,3.3 µM,5.06 µM,2.7 µM,3.49 µM,,4.94 µM,4.77 µM,2.84 µM,11.7 µM,8.53 µM
CC(C)Cc1ccc(C(C)CC2=CCC(CN(C)C)C2=O)cc1 (stereo unspecified),4.7 µM,13.1 µM,2.78 µM,24.9 µM,13.6 µM,8.41 µM,8.84 µM,20 µM,35.2 µM,30.1 µM,,,,,,,,,,
COc1cc2c(cc1OCCCCCCN1CCN(CC(=O)Nc3ccc(Cl)cc3C(=O)c3ccccc3Cl)CC1)N=CC1CCCN1C2=O (stereo unspecified),0.415 µM,0.361 µM,0.321 µM,0.396 µM,0.725 µM,0.396 µM,0.322 µM,1.08 µM,0.765 µM,0.681 µM,0.164 µM,0.185 µM,0.153 µM,0.189 µM,0.258 µM,0.177 µM,0.143 µM,0.298 µM,0.251 µM,0.242 µM
O=c1[nH]c2nc(NC3CCOCC3)ncc2cc1Oc1ccc(F)cc1F,> 25 µM,> 25 µM,> 25 µM,> 25 µM,> 25 µM,> 25 µM,> 25 µM,> 25 µM,> 25 µM,> 25 µM,> 25 µM,> 25 µM,> 25 µM,> 25 µM,> 25 µM,> 25 µM,> 25 µM,> 25 µM,> 25 µM,> 25 µM
S=c1nc(N/N=C/c2ccco2)c2cn[nH]c2[nH]1,48.1 µM,> 100 µM,> 100 µM,> 100 µM,> 100 µM,> 100 µM,> 100 µM,> 100 µM,> 100 µM,> 100 µM,1.95 µM,> 100 µM,3.6 µM,32.3 µM,> 100 µM,71.4 µM,40.5 µM,83.7 µM,20 µM,98.1 µM
COc1ccc(C(=O)NNc2nc(Cl)nc(N3CCN(C(c4ccccc4)c4ccccc4)CC3)n2)cc1,> 100 µM,3.64 µM,> 100 µM,3.45 µM,3.34 µM,3.55 µM,,3.19 µM,39.1 µM,18.5 µM,64 µM,1.84 µM,> 100 µM,1.89 µM,1.8 µM,1.61 µM,,1.71 µM,17.9 µM,3.2 µM
